Results on 6 molecules are retold here after patent EP4461294A1, “LIPOLYTIC AND ANTIADIPOGENIC COUMARIN DERIVATIVES” (Karl-Franzens-Universität Graz, priority 2023, dated 2024).

SMILES strings stand for the structures.

Common to all, as to assay type: cell-based
For one assay, the system named is C/EBPα. Nature of the assay: Western blot, protein expression of C/EBPα during adipogenesis of 3T3-L1 cells. Conditions: adipogenesis terminated at day 7, increasing concentrations. The method, then: (§1) 3T3-L1 preadipocytes were cultured in DMEM (D5796, high glucose) supplemented with 10% FBS, penicillin, and streptomycin at 37 °C in 5% CO2 atmosphere and 80% humidity. For long-term experiments, cells were seeded onto 6-well plates and grown to confluence. Adipogenesis was induced 48 h post confluence (day 0) by addition of culture medium containing […], […] dexamethasone, and 500 µM 3-isobutyl-1-methylxan-thine (IBMX). Experiments were performed in the absence and presence of increasing concentrations of ethanolic citrus extracts (total peel, flavedo and albedo layers) or commercially available citropten, bergamottin and 5-geranyloxy-7-methox-ycoumarin. Ethanol (0.1%) served as vehicle. At days 3 and 5, medium was replaced by fresh medium supplemented with 10 pg/ml and 0.2 ug/ml insulin, respectively, with and without compounds. At day 7, adipogenesis was terminated by harvest of cells. In a short-term approach, differentiation was performed for 24 h. […]
(§2) Lysates were denaturated by boiling with 5-fold Laemmli buffer for 10 min at 95 °C. […] After incubation of membranes with respective horseradish peroxidase-conjugated IgGs immunoreactive bands were visualized using Western Bright™ ECL or Western Bright™ Quantum substrates (Biozym, Austria) and chemiluminescence was quantified with the Fusion SL Imaging System (VWR International GmbH).

Assay [1] relates to C/EBPδ. Nature of the assay: Western blot, protein expression of C/EBPδ in 3T3-L1 cells. The conditions noted are these: 10 pg/ml each. The protocol:
as §1, §2
A general note: In western blotting, separated proteins are transferred to a membrane and probed.

Assay [2] deals with C/EBPβ. Nature of the assay: Western blot, protein expression of C/EBPβ (isoforms LAP*, LAP, LIP) in 3T3-L1 cells. The conditions noted are these: for protein expression of C/EBPβ (isoforms LAP*, LAP and LIP): 10 µg/ml each. The protocol: 3T3-L1 preadipocytes were cultured in DMEM (D5796, high glucose) supplemented with 10% FBS, penicillin, and streptomycin at 37 °C in 5% CO2 atmosphere and 80% humidity. For long-term experiments, cells were seeded onto 6-well plates and grown to confluence. Adipogenesis was induced 48 h post confluence (day 0) by addition of culture medium containing […], 0.4 pg/ml dexamethasone, and 500 µM 3-isobutyl-1-methylxan-thine (IBMX). Experiments were performed in the absence and presence of increasing concentrations of ethanolic citrus extracts (total peel, flavedo and albedo layers) or commercially available citropten, bergamottin and 5-geranyloxy-7-methox-ycoumarin. Ethanol (0.1%) served as vehicle. At days 3 and 5, medium was replaced by fresh medium supplemented with 10 pg/ml and 0.2 ug/ml insulin, respectively, with and without compounds. At day 7, adipogenesis was terminated by harvest of cells. In a short-term approach, differentiation was performed for 24 h. Cells were harvested by treatment with RIPA buffer (#R0278, Sigma) containing EDTA (2 mM) and cOmplete Protease Inhibitor Cocktail (total volume of 150 µl per well) and scraped off mechanically. Cell suspensions were transferred to Eppendorf vials, homogenized by repeated sonication, and kept on ice for 10 min. Aliquots were stored at 4 °C for measurement of triglycerides (TGs) and total cellular protein content. For Western blot experiments homogenates were stored at -80 °C.
Lysates were denaturated by boiling with 5-fold Laemmli buffer for 10 min at 95 °C. Samples containing 15 µg of protein were separated by SDS-PAGE on 8-12% gels for 45 min at 180 V. Thereafter, proteins were transferred onto nitrocellulose membranes for 90 min (240 mA). After blocking with Tris-buffered saline containing 0.1% (v/v) Tween-20 and 5% non-fat dry milk for 1 h (ambient temperature) membranes were incubated overnight at 4 °C with primary antibodies. After incubation of membranes with respective horseradish peroxidase-conjugated IgGs immunoreactive bands were visualized using Western Bright™ ECL or Western Bright™ Quantum substrates (Biozym, Austria) and chemiluminescence was quantified with the Fusion SL Imaging System (VWR International GmbH).

Assay [3] concerns C/EBPδ. Nature of the assay: Dual luciferase reporter assay, transcriptional activity of C/EBPδ in HEK293 cells. Conditions: 10 µg/ml, 24 h. The protocol: Transcriptional activities of C/EBPβ and C/EBP6 were measured using the C/EBP Cignal™ Reporter Assay (CCS-001L; dual luc) from Qiagen (Germany) and the Dual-Luciferase® Reporter Assay System (E1910; Promega Corporation, Germany) as recently described (Mussbacher et al., 2019, Sci Rep, 9(1), 15403. https://doi.org/10.1038/s41598-019-51579-x). pcDNA-mC/EBPβ (Addgene plasmid # 49198) and pcDNA-mC/EBP6 (Addgene plasmid #12559) were gifts from Jed Friedman and Peter Johnson, respectively. At 80-90% confluence, HEK293 cells were co-transfected with C/EBPβ or C/EBPδ DNA (1 µg each) and Cignal Reporter (0,5 µg) in serum- and antibiotic-free medium using TurboFect™ Transfection Reagent (ThermoFisher Scientific). Cells were incubated for 24 h in the absence and presence of citropten, bergamottin or 5-geranyloxy-7-methoxycoumarin. Thereafter, cells were harvested and lysed according to the manufacturer's instructions. Activities of firefly luciferase and Renilla luciferase were sequentially measured as biolumi-nescence using the GloMax Discover System GM3000 (Promega) as described. Luminescence of each sample was normalized to Renilla luciferase activity.
On the technique in general: Reporter assays use an easily measured gene product as a stand-in for the process of interest.

For a further assay, the system named is PPARγ. The assay can be described thus: Western blot, protein expression of PPARγ during adipogenesis of 3T3-L1 cells. Conditions: adipogenesis terminated at day 7, increasing concentrations. The method, then: as §1, §2
In the next assay the test system is AMPK. The assay can be described thus: Western blot, expression and phosphorylation of AMPK, short-term experiments in 3T3-L1 cells. Conditions: 10 µg/ml, short-term (24 h), compared to controls. The protocol:
as §1, §2

The subject of assay [4] is C/EBPβ. Nature of the assay: Dual luciferase reporter assay, transcriptional activity of C/EBPβ in HEK293 cells. Conditions: 24 h; for transcriptional activity of C/EBPβ: 10 µg/ml. The method, then: At 80-90% confluence, HEK293 cells were co-transfected with C/EBPβ or C/EBPδ DNA (1 µg each) and Cignal Reporter (0,5 µg) in serum- and antibiotic-free medium using TurboFect™ Transfection Reagent (ThermoFisher Scientific). Cells were incubated for 24 h in the absence and presence of citropten, bergamottin or 5-geranyloxy-7-methoxycoumarin. Thereafter, cells were harvested and lysed according to the manufacturer's instructions. Activities of firefly luciferase and Renilla luciferase were sequentially measured as biolumi-nescence using the GloMax Discover System GM3000 (Promega) as described. Luminescence of each sample was normalized to Renilla luciferase activity.

For assay [5], the system named is acetyl-CoA carboxylase (ACC). The assay can be described thus: Western blot, expression and phosphorylation of ACC, short-term experiments in 3T3-L1 cells. The protocol:
as §1, §2

Assay [6] concerns mature 3T3-L1 cells. The assay can be described thus: Forskolin-stimulated lipolysis, release of free fatty acids into the medium. Conditions: for forskolin-induced lipolysis: 3 h. The protocol: (§3) 3T3-L1 preadipocytes were seeded onto 6-well plates and cultured in DMEM (D5796; high glucose) supplemented with 10% fetal bovine serum, penicillin, and streptomycin at 37 °C in 5% CO2 atmosphere and 80% humidity. Differentiation of cells were performed for 10 days as described in 2.4. Mature adipocytes were washed twice in low glucose containing DMEM (D4947). Lipolysis was induced by addition of the adenylyl cyclase activator forskolin (10 µM) and cells were incubated in medium containing 2% fatty acid-free BSA for up to 6 h in the absence and presence of coumarins. In basal lipolysis experiments, forskolin was excluded. Aliquots of the medium were collected and release of free fatty acids (FFAs) was measured using the NEFA Assay Kit from FUJIFILM Wako Chemicals Europe GmbH (Neuss, Germany) (ASC-ACOD method) according to the manufacturer's instructions.

In assay [7] the test system is mature 3T3-L1 cells. Nature of the assay: Basal lipolysis, release of free fatty acids into the medium (forskolin excluded). The arrangement: dose or concentration left out as unconfirmed. Conditions: without forskolin, 3 h. The method, then:
as §3

For the molecule `COc1cc(OC/C=C(\C)CCC=C(C)C)c2ccc(=O)oc2c1` [5-geranyloxy-7-methoxycoumarin, 5-[(2E)-3,7-dimethylocta-2,6-dienoxy]-7-methoxychromen-2-one], the “protein expression of C/EBPα” value in the assay with C/EBPα is “concentration-dependently suppressed”. Besides, the “protein expression of C/EBP6” value with C/EBPδ [1] is on record as “not affected”. The “protein expression of C/EBPβ (isoforms LAP*, LAP and LIP)” value with C/EBPβ [2] is “not affected”. Further, the “transcriptional activity of C/EBP6 (C/EBPδ-dependent transcriptional activity)” value in the assay on C/EBPδ [3] is on record as “tendency to decrease”; with C/EBPδ [3] (listed as 5-geranyloxy-7-methoxy-coumarin), “not affected”. Further, the “protein expression of PPARγ” value in the assay with PPARγ is “concentration-dependently suppressed”. Further, the “phosphorylation of AMPK at Thr172” value in the assay with AMPK is given as “more than doubled”. In addition, the “transcriptional activity of C/EBPβ” value in the assay with C/EBPβ [4] is on record as “not affected”. Besides, the fold induction at 10 µg/mL in assay [5] (Mus musculus, 3T3-L1, short-term (24 h), compared to controls, read-out: phosphorylation of acetyl-CoA carboxylase (ACC) at Ser79) was around 3.

On to `CC(C)=CCC/C(C)=C/COc1c2ccoc2cc2oc(=O)ccc12` [bergamottin, 4-[(2E)-3,7-dimethylocta-2,6-dienoxy]furo[3,2-g]chromen-7-one], for which the “protein expression of C/EBPα” value in the assay on C/EBPα is on record as “concentration-dependently suppressed”. Moreover, the “protein expression of C/EBP6” value with C/EBPδ [1] is “not affected”. Further, in the assay on C/EBPβ [2], the “protein expression of C/EBPβ (isoforms LAP*, LAP and LIP)” value was “not affected”. Further, in the assay with mature 3T3-L1 cells [6] (30 µM (10 µg/ml)), the forskolin-induced lipolysis entry is given as “did not significantly enhance”. Also, in the assay with C/EBPδ [3], the “transcriptional activity of C/EBP6 (C/EBPδ-dependent transcriptional activity)” value was “not affected”. Further, the “protein expression of PPARγ” value in the assay on PPARγ is reported as “concentration-dependently suppressed”. Moreover, the “phosphorylation of AMPK at Thr172” value in the assay with AMPK is “significantly increased”. Besides, the “transcriptional activity of C/EBPβ” value with C/EBPβ [4] is reported as “not affected”. In addition, in assay [5] (10 µg/ml, short-term experiments, p<0.05 vs vehicle-treated cells), the “phosphorylation of ACC (Ser79)” value is “significantly increased”.

On to `COc1cc(OC)c2ccc(=O)oc2c1` [citropten, 5,7-dimethoxy-2H-chromen-2-one], for which the “expression of LIP” value in the assay on C/EBPβ [2] (25 µg/ml, p<0.05 vs vehicle-treated cells) is “significantly upregulated”. The “protein expression of C/EBPβ” value in the assay with C/EBPβ [2] (citropten 25 µg/ml) was “increased”. The forskolin-induced lipolysis entry in the assay on mature 3T3-L1 cells [6] (10 pg/ml (≈ 48 µM)) was “significant effect”. Moreover, the activity at 120 µM in the assay with mature 3T3-L1 cells [6] (Mus musculus, 3T3-L1, 25 µg/ml (≈ 120 µM), 3-4 h after induction of lipolysis, read-out: effect on forskolin-stimulated lipolysis (release of FFAs), maximal) was 185 to 190%. Moreover, the forskolin-stimulated lipolysis result in the assay on mature 3T3-L1 cells [6] (forskolin 10 µM, time- and concentration-dependent manner) was “enhanced”. The “release of FFAs” value in the assay on mature 3T3-L1 cells [6] (forskolin-stimulated, 25 µg/ml (≈ 120 µM), within 0.5 and 6 h) is on record as “significantly increased”. In addition, the “basal release of FFAs” value in the assay with mature 3T3-L1 cells [7] is “increased”. Moreover, in the assay with C/EBPβ [4] (citropten 25 µg/ml), the “activity of C/EBPβ” value is recorded as “increased”.

In the case of `O=c1ccc2cc(O)c(O)cc2o1` [esculetin, 6,7-dihydroxy-2H-chromen-2-one], the forskolin-induced lipolysis result with mature 3T3-L1 cells [6] (56 µM (10 µg/ml)) is on record as “did not significantly enhance”.

As for `COc1ccc2ccc(=O)oc2c1` [herniarin, 7-methoxy-2H-chromen-2-one], the forskolin-induced lipolysis result in the assay on mature 3T3-L1 cells [6] (141 µM (25 µg/ml)) is “did not significantly enhance”.

Turning to `COc1cc2oc(=O)ccc2cc1O` [isoscopoletin, 6-hydroxy-7-methoxy-2H-chromen-2-one], in the assay on mature 3T3-L1 cells [6] (56 µM (10 µg/ml)), the forskolin-induced lipolysis result is reported as “did not significantly enhance”.
